The source made the active and inactive calls. The calls are words filed in the database; no cut-off is given here.
Tests used:
[1] = system: HT-29; assay: Antiproliferative activity against human HT-29 cells after 2 days by MTT assay; assay type: functional, cell-based; details: HT-29, 48 h
[2] = system: MCF7; assay: Antiproliferative activity against human MCF7 cells after 2 days by MTT assay; assay type: functional, cell-based; details: MCF7, 48 h
[3] = system: HeLa; assay: Antiproliferative activity against human HeLa cells after 2 days by MTT assay; assay type: functional, cell-based; details: 48 h
[4] = system: A549; assay: Antiproliferative activity against human A549 cells after 2 days by MTT assay; assay type: functional, cell-based; details: A549, 48 h
[5] = system: HL-60; assay: Antiproliferative activity against human HL60 cells after 2 days by MTT assay; assay type: functional, cell-based; details: HL-60, 48 h
[6] = system: HMEC-1; assay: Antiproliferative activity against HMEC1 cells after 2 days by MTT assay; assay type: functional, cell-based; details: Homo sapiens, HMEC-1, 48 h
[7] = system: HEK293; assay: Antiproliferative activity against HEK293 cells after 2 days by MTT assay; assay type: cell-based; details: Homo sapiens, HEK293, 48 h
[8] = system: MDA-MB-231; assay: Antiproliferative activity against human MDA-MB-231 cells after 3 days by coulter counting method; assay type: functional, cell-based; details: MDA-MB-231, 72 h
[9] = system: A549; assay: Cell cycle arrest in human A549 cells assessed as accumulation at sub-G0 phase at 70 nM after 20 hrs by propidium iodide staining based flow cytometry (reference value: 6.6 +/- 0.1%); assay type: functional
[10] = system: A549; assay: Cell cycle arrest in human A549 cells assessed as accumulation at G0/G1 phase at 70 nM after 20 hrs by propidium iodide staining based flow cytometry (reference value: 66 +/- 1%); assay type: functional
[11] = system: A549; assay: Cell cycle arrest in human A549 cells assessed as accumulation at S phase at 70 nM after 20 hrs by propidium iodide staining based flow cytometry (reference value: 16 +/- 1%); assay type: functional
[12] = system: A549; assay: Cell cycle arrest in human A549 cells assessed as accumulation at G2/M phase at 70 nM after 20 hrs by propidium iodide staining based flow cytometry (reference value: 11 +/- 1%); assay type: functional
[13] = organism: Bos taurus; assay: Inhibition of calf brain tubulin polymerization after 60 mins by turbidimetric method
[14] = system: A549; assay: Cell cycle arrest in human A549 cells assessed as accumulation at sub-G0 phase at 45 nM after 20 hrs by propidium iodide staining based flow cytometry (reference value: 6.6 +/- 0.1%); assay type: functional
[15] = system: A549; assay: Cell cycle arrest in human A549 cells assessed as accumulation at G0/G1 phase at 45 nM after 20 hrs by propidium iodide staining based flow cytometry (reference value: 66 +/- 1%); assay type: functional
[16] = system: A549; assay: Cell cycle arrest in human A549 cells assessed as accumulation at S phase at 45 nM after 20 hrs by propidium iodide staining based flow cytometry (reference value: 16 +/- 1%); assay type: functional
[17] = system: A549; assay: Cell cycle arrest in human A549 cells assessed as accumulation at G2/M phase at 45 nM after 20 hrs by propidium iodide staining based flow cytometry (reference value: 11 +/- 1%); assay type: functional
[18] = system: A549; assay: Induction of apoptosis in human A549 cells at 100 nM after 24 hrs by Annexin V-FITC/propidium iodide staining based flow cytometry (reference value: 28%); assay type: functional
[19] = system: A549; assay: Induction of apoptosis in human A549 cells at 10 nM after 24 hrs by Annexin V-FITC/propidium iodide staining based flow cytometry (reference value: 28%); assay type: functional
[20] = system: A549; assay: Induction of apoptosis in human A549 cells after 24 hrs by Annexin V-FITC/propidium iodide staining based flow cytometry; assay type: functional, cell-based

COc1ccc(/C=C\c2cc(OC)c(OC)c(OC)c2)cc1NC(=O)Oc1cccc(Cl)c1C
IC50 [1]: 47 nM | IC50 [2]: 39 nM | IC50 [3]: 23 nM | IC50 [4]: 140 nM | IC50 [5]: 70 nM | IC50 [6]: 20 nM | IC50 [7]: 14 nM | IC50 [8]: 14 nM | Activity [9]: 20% | Activity [10]: 24% | Activity [11]: 18% | Activity [12]: 39%

COc1ccc(/C=C\c2cc(OC)c(OC)c(OC)c2)cc1NC(=O)Oc1ccc(C)c(Cl)c1
IC50 [1]: 23 nM | IC50 [2]: 6.1 nM | IC50 [3]: 3.7 nM | IC50 [4]: 90 nM | IC50 [5]: 1.8 nM | IC50 [6]: 6 nM | IC50 [7]: 7 nM | IC50 [8]: 13.7 nM | inhibition [13]: Active | Activity [14]: 29% | Activity [15]: 21% | Activity [16]: 14% | Activity [17]: 36% | Activity [18]: 46% | Activity [19]: 23% | Activity [20]: Dose-dependent effect

Reference: ChEMBL document CHEMBL4145540 (Eur J Med Chem, 2018)
